Laboratory results as given in ChEMBL document CHEMBL1201862, “PubChem BioAssay data set” (2004).
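Cultured in 96-well plates, cells were exposed to test compound for 48 hours across five concentrations. GI50: concentration for 50% inhibition of growth.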 Active and inactive are the calls of the source. Cut-off read from the data, not from the text of the source: active = GI50 up to about 1.1 µM and inactive = higher.

Tests used:
Experiment in all cases: NCI-60 cell line screen, 48 h
RXF 393 = system: RXF 393
OVCAR-8 = system: OVCAR-8
UACC-257 = system: UACC-257
LOX IMVI = system: LOX IMVI
SK-MEL-28 = system: SK-MEL-28
DLD-1 = system: DLD-1
SNB-75 = system: SNB-75
UACC-62 = system: UACC-62
SF-539 = system: SF-539
IGROV-1 = system: IGROV-1
SF-268 = system: SF-268
OVCAR-5 = system: OVCAR-5
786-0 = system: 786-0
HOP-62 = system: HOP-62
SNB-78 = system: SNB-78
LXFL 529 = system: LXFL 529
RPMI-8226 = system: RPMI-8226
SF-295 = system: SF-295
SK-MEL-5 = system: SK-MEL-5
U-251 = system: U-251
Malme-3M = system: Malme-3M
UO-31 = system: UO-31
M19-MEL = system: M19-MEL
RXF 631 = system: RXF 631
HT-29 = system: HT-29
NCI-H23 = system: NCI-H23
DMS-114 = system: DMS-114
NCI-H226 = system: NCI-H226
KM-20L2 = system: KM-20L2
CCRF-CEM = system: CCRF-CEM
XF498 = system: XF498
HOP-92 = system: HOP-92
HL-60 = system: HL-60
SK-MEL-2 = system: SK-MEL-2
TK-10 = system: TK-10
NCI-H522 = system: NCI-H522
OVCAR-3 = system: OVCAR-3
M14 = system: M14
EKVX = system: EKVX
HCC 2998 = system: HCC 2998
K562 = system: K562
NCI-H460 = system: NCI-H460
A498 = system: A498
KM12 = system: KM12
MOLT-4 = system: MOLT-4
HCT-116 = system: HCT-116
SK-OV-3 = system: SK-OV-3
SW-620 = system: SW-620
COLO 205 = system: COLO 205
A549 = system: A549
SNB-19 = system: SNB-19
DMS-273 = system: DMS-273
SR = system: SR
ACHN = system: ACHN

Measured: GI50

COC(=O)N/N=C(\C)CC(=O)Nc1ccc(Cl)cc1
inactive: RXF 393 42.6 µM | OVCAR-8 > 100 µM | UACC-257 > 100 µM | LOX IMVI > 100 µM | SK-MEL-28 > 100 µM | DLD-1 > 100 µM | SNB-75 98.6 µM | UACC-62 > 100 µM | SF-539 > 100 µM | IGROV-1 > 100 µM | SF-268 > 100 µM | OVCAR-5 > 100 µM | 786-0 > 100 µM | HOP-62 > 100 µM | SNB-78 > 100 µM | LXFL 529 > 100 µM | RPMI-8226 > 100 µM | SF-295 > 100 µM | SK-MEL-5 > 100 µM | U-251 > 100 µM | Malme-3M > 100 µM | UO-31 67.3 µM | M19-MEL > 100 µM | RXF 631 > 100 µM | HT-29 > 100 µM | NCI-H23 > 100 µM | DMS-114 > 100 µM | NCI-H226 > 100 µM | KM-20L2 > 100 µM | CCRF-CEM > 100 µM | XF498 > 100 µM | HOP-92 > 100 µM | HL-60 > 100 µM | SK-MEL-2 > 100 µM | TK-10 > 100 µM | NCI-H522 58.5 µM | OVCAR-3 > 100 µM | M14 > 100 µM | EKVX 46.7 µM | HCC 2998 > 100 µM | K562 > 100 µM | NCI-H460 > 100 µM | A498 > 100 µM | KM12 > 100 µM | MOLT-4 > 100 µM | HCT-116 > 100 µM | SK-OV-3 > 100 µM | SW-620 > 100 µM | COLO 205 > 100 µM | A549 > 100 µM

CCC1=CC2CC(C(=O)OC)C1(N(C)C)C2=O (stereo unspecified)
inactive: RXF 393 > 100 µM | OVCAR-8 > 100 µM | UACC-257 > 100 µM | SNB-19 > 100 µM | SK-MEL-28 > 100 µM | DMS-273 > 100 µM | UACC-62 > 100 µM | IGROV-1 > 100 µM | SF-268 > 100 µM | OVCAR-5 > 100 µM | HOP-62 > 100 µM | SR > 100 µM | SNB-78 > 100 µM | SF-295 > 100 µM | U-251 > 100 µM | UO-31 > 100 µM | M19-MEL > 100 µM | RXF 631 > 100 µM | HT-29 > 100 µM | NCI-H23 > 100 µM | DMS-114 > 100 µM | CCRF-CEM > 100 µM | HOP-92 > 100 µM | HL-60 > 100 µM | ACHN > 100 µM | TK-10 > 100 µM | NCI-H522 > 100 µM | M14 > 100 µM | EKVX > 100 µM | NCI-H460 > 100 µM | A498 > 100 µM | KM12 > 100 µM | MOLT-4 > 100 µM | HCT-116 > 100 µM | SK-OV-3 > 100 µM | A549 > 100 µM
